As a reminder, the IC50 is the concentration needed to halve the response being measured.

Data on 25 compounds can be found in patent US20210130308A1, “MODULATORS OF EUKARYOTIC INITIATION FACTOR 2” (Denali Therapeutics Inc., priority 2018, published 2021).

Structures are written as SMILES.

The first assay has as its system ATF4 translation (ISR pathway activation). Description: ATF4 Nano Luciferase reporter integrated stress response (ISR) assay in H4 ATF4-NLuc (clone 17) cells. The following applies: H4 ATF4-NLuc (clone 17) cells; compounds 30 minutes at 37 degree Celsius, then 50 um sodium arsenite for 6 additional hours; luminescence readout; read-out: IC50. In kind it is cell-based, human. The source says:
Cellular stress leads to activation of the integrated stress response pathway through one of four eukaryotic initiation factor 2α kinases and halts global translation, while allowing for the translation of select transcripts like ATF4 (activating transcription factor 4) that are important for the response to cellular stress. During normal conditions, small open reading frames (ORFs) in the 5′ UTR of ATF4 occupy the ribosome and prevent translation of the coding sequence of ATF4. During stress conditions however, the ribosome scans past these upstream ORFs and preferentially begins translation at the coding sequence of ATF4. In this way, the translation, and thus protein level of ATF4 is a readout of ISR pathway activation. Thus, a fusion of the uORFs and the beginning of the coding sequence of ATF to a common cellular reporter like nano-luciferase allows for a sensitive and high-throughput readout of ISR pathway activity.
Compounds as provided herein were tested in the following assay. The ATF4 Nano Luciferase reporter was constructed by fusing the human full length 5′ untranslated region (5′-UTR) and a small portion of the coding sequence of the ATF4 gene upstream of the Nano Luciferase (NLuc) coding sequence lacking it's start codon. Specifically, nucleotides +1 through +364 (relative to the transcriptional start site) of ATF4 transcript variant 2 (NCBI NM_182810.2) flanked 5′ by EcoRI and 3′ by BamHI restriction enzyme sites were synthesized and cloned into the EcoRI/BamHI cloning sites of pLVX-EF1a-IRES-Puro lentivirus vector (Clontech). […]. H4 cells were selected with […] Puromycin, and clonal cell lines generated by limiting dilution. We utilized this cell line to generate an integrated stress response (ISR) assay to evaluate the activity of ISR pathway inhibitors via luminescence readout. The H4 ATF4-NLuc (clone 17) cell line is plated at a density of […] in 96-well or 384-well respectively in DMEM+10% fetal bovine serum. 24-hours later test compounds diluted in dimethyl sulfoxide (DMSO) are added for 30 minutes at 37 degree Celsius, followed by ISR pathway activation with 50 um sodium arsenite aqueous solution for 6 additional hours. Nano Glo luciferase reagent (N1150, Promega) is added according to manufacturer instructions and the luminescence signal (corresponding to the level of ATF4 translation and thus ISR pathway activation) is read with a standard plate reader with luminescence detection capabilities.
In the table below, activity of the tested compounds is provided in Table 3 as follows: +++=IC50<1 μM; ++=IC50 1-10 μM; +=IC50>10 μM.
On the technique in general: Reporter assays use an easily measured gene product as a stand-in for the process of interest.
For the compound `O=C(COc1ccc(Cl)c(F)c1)NC12CC(NC(=O)COC3CC(C(F)(F)F)C3)(C1)C2` (single isomer, unassigned) [12 (second eluting isomer), 2-(4-chloro-3-fluorophenoxy)-N-(3-(2-(3-(trifluoromethyl)cyclobutoxy)acetamido)bicyclo[1.1.1]pentan-1-yl)acetamide], the IC50 is less than 1 µM. In the case of `O=C(COC1CC(F)C1)NC12CC(NC(=O)c3ccc4cc(C(F)(F)F)ccc4n3)(C1)C2` (stereo not drawn) [Example 54, N-[1-[[2-(3-cis-fluorocyclobutoxy)acetyl]amino]-3-bicyclo[1.1.1]pentanyl]-6-(trifluoromethyl)quinoline-2-carboxamide], the IC50 is less than 1 µM.

Turning to `O=C(COc1ccc(Cl)cc1)NC12CC(NC(=O)COC3CC(C(F)(F)F)C3)(C1)C2` (single isomer, unassigned) [3 (second eluting isomer), 2-(4-chlorophenoxy)-N-(3-(2-(3-(trifluoromethyl)cyclobutoxy)acetamido)bicyclo[1.1.1]pentan-1-yl)acetamide], the IC50 was less than 1 µM.

The same assay, now with this note: Homo sapiens, 0.5 h.
Take `O=C(COc1ccc(Cl)c(F)c1)NC1C[C@H]2COC[C@@H](C1)N2c1cnn(C2CC(OC(F)(F)F)C2)c1` (stereo partly drawn) [Example 50, 2-(4-chloro-3-fluoro-phenoxy)-N-[(1S,5R,7r)-9-[1-[3-cis-(trifluoromethoxy)cyclobutyl]pyrazol-4-yl]-3-oxa-9-azabicyclo[3.3.1]nonan-7-yl]acetamide]: the IC50 was less than 1 µM.

Staying with this assay, now noted: Homo sapiens, 0.5 h; H4 ATF4-NLuc (clone 17) cells; compounds 30 minutes at 37 degree Celsius, then 50 um sodium arsenite for 6 additional hours; luminescence readout; read-out: IC50.
Consider `N#CC1CC(OCC(=O)NC23CC(NC(=O)COc4ccc(Cl)c(F)c4)(C2)C3)C1` (stereo not shown) [Example 7, 2-(4-chloro-3-fluorophenoxy)-N-(3-(2-(3-cyanocyclobutoxy)acetamido)bicyclo[1.1.1]pentan-1-yl)acetamide], for which the IC50 was less than 1 µM. Consider `O=C(COc1ccc(Cl)c(F)c1)NC12CC(NC(=O)COC3CC(C(F)F)C3)(C1)C2` (stereo not drawn) [Example 38, 2-(4-chloro-3-fluoro-phenoxy)-N-[3-[[2-[3-cis-(difluoromethyl)cyclobutoxy]acetyl]amino]-1-bicyclo[1.1.1]pentanyl]acetamide], for which the IC50 was less than 1 µM. For the compound `O=C(COc1ccc(Cl)c(F)c1)NC1CCN(c2nnc(C3CC(OC(F)(F)F)C3)o2)CC1` (stereo not drawn) [Example 26, 2-(4-chloro-3-fluoro-phenoxy)-N-[1-[5-[3-cis-(trifluoromethoxy)cyclobutyl]-1,3,4-oxadiazol-2-yl]-4-piperidyl]acetamide], the IC50 was less than 1 µM. Consider `O=C(COc1ccc(Cl)c(F)c1)NC1CC2(C1)CN(C(=O)COC1CC(C(F)(F)F)C1)C2` (stereo not shown) [Example 17, 2-(4-chloro-3-fluoro-phenoxy)-N-[2-[2-[3-(trifluoromethyl)cyclobutoxy]acetyl]-2-azaspiro[3.3]heptan-6-yl]acetamide], for which the half-inhibitory concentration (IC50) was less than 1 µM. `O=C(COc1ccc(Cl)cc1)NC12CC(NC(=O)COC3CC(F)(F)C3)(C1)C2` [Example 2, 2-(4-chlorophenoxy)-N-(3-(2-(3,3-difluorocyclobutoxy)acetamido)bicyclo[1.1.1]pentan-1-yl)acetamide]: the IC50 is less than 1 µM. For `O=C(COc1ccc(Cl)c(F)c1)NC1CC2(C1)CC(c1nnc(C3CC(OC(F)(F)F)C3)o1)C2` (stereo not drawn) [Example 33, 2-(4-chloro-3-fluoro-phenoxy)-N46-[5-[3-cis-(trifluoromethoxy)cyclobutyl]-1,3,4-oxadiazol-2-yl]spiro[3.3]heptan-2-yl)acetamide], the IC50 is less than 1 µM.

For `O=C(COc1ccc(Cl)c(F)c1)N[C@H]1C[C@@H]2CN(C(=O)COC3CCC3)C[C@@H]2C1` [Example 40, 2-(4-chloro-3-fluorophenoxy)-N-((3aR,5s,6aS)-2-(2-cyclobutoxyacetyl)octahydrocyclopenta[c]pyrrol-5-yl)acetamide], the IC50 was less than 1 µM.

As to `O=C(COC1CC(OC(F)(F)F)C1)NC12CC(NC(=O)c3ccc4cc(Cl)ccc4n3)(C1)C2` (stereo not drawn) [Example 64, 6-chloro-N-[1-[[2-[3-cis-(trifluoromethoxy)cyclobutoxy]acetyl]amino]-3-bicyclo[1.1.1]pentanyl]quinoline-2-carboxamide], the IC50 is less than 1 µM.

For `O=C(COc1ccc(Cl)c(F)c1)NC1CCN(C(=O)COC2CC(OC(F)(F)F)C2)CC1` (stereo not drawn) [Example 62, 2-(4-chloro-3-fluoro-phenoxy)-N-[1-[2-[3-cis-(trifluoromethoxy)cyclobutoxy]acetyl]-4-piperidyl]acetamide], the IC50 was less than 1 µM. As to `O=C(COc1ccc(Cl)c(F)c1)NC1CCN(CCOC2CC(OC(F)(F)F)C2)CC1(F)F` (stereo not drawn) [Example 47, 2-(4-chloro-3-fluoro-phenoxy)-N-[3,3-difluoro-1-[2-[3-cis-(trifluoromethoxy)cyclobutoxy]ethyl]-4-piperidyl]acetamide], the IC50 is less than 1 µM. Still for that read-out and setting: the result for `O=C(COc1ccc(Cl)c(F)c1)NC1CCN(CC(F)(F)COC2CC(OC(F)(F)F)C2)CC1` (stereo not drawn) [Example 57, 2-(4-chloro-3-fluorophenoxy)-N-(1-(2,2-difluoro-3-(3-cis-(trifluoromethoxy)cyclobutoxy)propyl)piperidin-4-yl)acetamide] reads less than 1 µM; that for `CCOC1CC(OCC(=O)NC23CC(NC(=O)c4ccc5cc(C(F)(F)F)ccc5n4)(C2)C3)C1` (stereo not drawn) [Example 71, N-(3-(2-(3-cis-ethoxycyclobutoxy)acetamido)bicyclo[1.1.1]pentan-1-yl)-6-(trifluoromethyl)quinoline-2-carboxamide], less than 1 µM.

In the case of `O=C(COc1ccc(Cl)c(F)c1)NC1CC2(CCN(C(=O)COC3CCC3)CC2)C1` [Example 15, 2-(4-chloro-3-fluoro-phenoxy)-N-[7-[2-(cyclobutoxy)acetyl]-7-azaspiro[3.5]nonan-2-yl]acetamide], the IC50 was less than 1 µM. In the case of `O=C(COC1CC(OC(F)(F)F)C1)NC12CC(NC(=O)c3ccc4c(F)c(F)ccc4n3)(C1)C2` (stereo not drawn) [Example 68, 5,6-difluoro-N-(3-(2-(3-cis-(trifluoromethoxy)cyclobutoxy)acetamido)bicyclo[1.1.1]pentan-1-yl)quinoline-2-carboxamide], the IC50 is less than 1 µM. Take `O=C(COc1ccc(Cl)c(F)c1)N[C@H]1CC[C@H](c2nnc(C3CC(OC(F)(F)F)C3)o2)CC1` (stereo partly drawn) [Example 28, 2-(4-chloro-3-fluoro-phenoxy)-N-[4-[5-[3-cis-(trifluoromethoxy)cyclobutyl]-1,3,4-oxadiazol-2-yl]cyclohexyl]acetamide]: the IC50 was less than 1 µM. With `O=C(COc1ccc(Cl)c(F)c1)NC1CC2(C1)CN(C(=O)COC1CC(OC(F)(F)F)C1)C2` (stereo not drawn) [Example 21, 2-(4-chloro-3-fluoro-phenoxy)-N-[2-[2-[3-cis-(trifluoromethoxy)cyclobutoxy]acetyl]-2-azaspiro[3.3]heptan-6-yl]acetamide], the IC50 is less than 1 µM. With `O=C(COC1CC(CC(F)(F)F)C1)NC12CC(NC(=O)c3ccc4cc(C(F)(F)F)ccc4n3)(C1)C2` (stereo not shown) [Example 75], the IC50 was less than 1 µM. On to `O=C(COc1ccc(Cl)c(F)c1)NC1CCN(c2ccnc(C3CC(OC(F)(F)F)C3)n2)CC1` [58 (cis isomer), 2-(4-chloro-3-fluorophenoxy)-N-(1-(2-(3-cis-(trifluoromethoxy)cyclobutyl)pyrimidin-4-yl)piperidin-4-yl)acetamide], for which the IC50 is less than 1 µM. For the compound `O=C(COC1CC(OC(F)(F)F)C1)NC12CC(NC(=O)[C@H]3CCc4cc(C(F)(F)F)ccc4O3)(C1)C2` (single isomer, unassigned) [Example 72 (first eluting isomer), N-(3-(2-(3-cis-(trifluoromethoxy)cyclobutoxy)acetamido)bicyclo[1.1.1]pentan-1-yl)-6-(trifluoromethyl)chroman-2-carboxamide], the IC50 is less than 1 µM. As to `CC1(OCC(=O)NC23CC(NC(=O)COc4ccc(Cl)cc4)(C2)C3)CC(C#N)C1` (stereo not shown) [Example 8, 2-(4-chlorophenoxy)-N-(3-(2-(3-cyano-1-methylcyclobutoxy)acetamido)bicyclo[1.1.1]pentan-1-yl)acetamide], the IC50 lay in the range of 1 to 10 µM. Consider `CO[C@H]1CN(CCOC2CC(OC(F)(F)F)C2)CCC1NC(=O)COc1ccc(Cl)c(F)c1` (stereo partly drawn) [Example 48, 2-(4-chloro-3-fluoro-phenoxy)-N-[cis-3-methoxy-1-[2-[3-cis-(trifluoromethoxy)cyclobutoxy]ethyl]-4-piperidyl]acetamide], for which the IC50 was less than 1 µM.
